Patent US5061711A, “Method of curing liver diseases by using pyrrolo quinoline quinone triesters and novel pyrrolo quinoline quinone triesters” (Mitsubishi Gas Chemical Company, Inc., priority 1989, dated 1991)

Columns and labels:
male mice SPF-ICR = experiment: Acute toxicity test; conditions: mouse, in vivo
Method: To male mice SPF-ICR five weeks old (supplied by Japan Charles River Co.) were intraperitoneally administered PQQ.2Na, PQQ trimethyl ester and PQQ triallyl ester at dosages of 40, 80, 160 and 200 mg per kg of body weight of mouse, respectively and they were bred for 14 days at 25° C. One group consisted of 8 mice. For administration, PQQ.2Na was dissolved in physiological saline and PQQ trimethyl ester and PQQ triallyl ester were suspended in 1%Tween 80-containing physiological saline, respectively.

mice = experiment: Kidney toxicity determined by urine test; type: in vivo, mouse; conditions: for glucose in urine (in words): i.p., all doses
Method: (2) Kidney toxicity determined by urine test
PQQ.2Na, PQQ trimethyl ester and PQQ triallyl ester were intraperitoneally administered to mice and they were bred in the same manner as in the above acute toxicity test. The doses per kg of body weight of mouse were 20, 40 and 80 mg for PQQ.2Na and 20, 40, 80, 160 and 200 mg for PQQ triesters. Urine was collected every day and glucose concentration was examined using clinical examination reagent (trademark: […] II manufactured by Miles.Sankyo Co.).

[1] = test system: D-galactosamine-induced liver diseases; experiment: Pharmacological effect (2) on D-galactosamine-induced liver diseases; type: in vivo, SD rats; conditions: D-galactosamine 1 g/kg rat i.p., 23 hours, average of five rats; for Total bilirubin in serum: D-galactosamine alone 1.4; for GPT in serum: D-galactosamine alone 1560; for GOT in serum: D-galactosamine alone 2542
Method: Pharmacological effect (2) of PQQ triesters on D-galactosamine-induced liver diseases:
Forty SD rats (male, 7 weeks old, body weight: about 260 g; supplied by Japan Charles River Co.) were divided to eight groups (A-H) each consisting of five rats. All rats were fasted for 18 hours and 1.3 ml of a solution containing 1 mg/ml of PQQ trimethyl ester was orally administered to the rats of group C, 1.3 ml of a solution containing 2 mg/ml of PQQ trimethyl ester was orally administered to the rats of group D, 1.3 ml of a solution containing 3 mg/ml of PQQ trimethyl ester was orally administered to the rats of group E, 1.3 ml of a solution containing 1 mg/ml of PQQ triallyl ester was orally administered to the rats of group F, 1.3 ml of a solution containing 2 mg/ml of PQQ triallyl ester was orally administered to the rats of group G, and 1.3 ml of a solution containing 3 mg/ml of PQQ triallyl ester was orally administered to the rats of group H and furthermore, after lapse of 40 minutes, the same PQQ triesters in the same doses as above were orally administered to respective rats. In these cases, the PQQ triesters were suspended in physiological saline containing 1% Tween 80 and administered to the rats. 1.3 ml of physiological saline was orally administered to the rats of group B in place of PQQ triesters. Furthermore, after lapse of 20 minutes, 1.3 ml of a solution of d-galactosamine in 10 ml of physiological saline was intraperitoneally administered to the rats of groups B-H. Neither PQQ triesters nor D-galactosamine were administered to the rats of group A.
After 23 hours from administration of D-galactosamine, blood was collected from abdominal main artery and serum was obtained by centrifugation therefrom.
GPT, GOT and amount of total bilirubin in the serum were measured by clinical examination reagent (trademark: FUJI DRYCHEMSLIDE manufactured by Fuji Photo Film Co., Ltd.). The results are shown in Table 8 by average value of five rats.

[2] = bovine, not told, 960 min
Method: Each compound dissolved in 10 mM HEPES buffer (containing 1%DMSO in the case of PQQ triesters) was put in an apparatus for measurement of membrane permeation constant and left to stand for 16 hours at 35 ° C. and then amount of the compound which migrated was measured by ultraviolet absorption (243 nm for PQQ 2Na and 255 nm for PQQ triester) to obtain membrane permeation constant.

## C=CCOC(=O)c1cc(C(=O)OCC=C)c2c(n1)C(=O)C(=O)c1cc(C(=O)OCC=C)[nH]c1-2 [PQQ triallyl ester]
Male mice SPF-ICR
  mice died: no mice died
mice; i.p. 20 mg/kg, day 1
  glucose in urine: -
mice; i.p. 20 mg/kg, day 2
  glucose in urine: -
mice; i.p. 20 mg/kg, day 3
  glucose in urine: -
mice; i.p. 20 mg/kg, day 6
  glucose in urine: -
mice; i.p. 20 mg/kg, day 7
  glucose in urine: -
mice; i.p. 20 mg/kg, day 8
  glucose in urine: -
mice; i.p. 20 mg/kg, day 10
  glucose in urine: -
mice; i.p. 20 mg/kg, day 13
  glucose in urine: -
mice; i.p. 20 mg/kg, day 14
  glucose in urine: -
mice; i.p. 40 mg/kg, day 1
  glucose in urine: -
mice; i.p. 40 mg/kg, day 2
  glucose in urine: -
mice; i.p. 40 mg/kg, day 3
  glucose in urine: -
mice; i.p. 40 mg/kg, day 6
  glucose in urine: -
mice; i.p. 40 mg/kg, day 7
  glucose in urine: -
mice; i.p. 40 mg/kg, day 8
  glucose in urine: -
mice; i.p. 40 mg/kg, day 10
  glucose in urine: -
mice; i.p. 40 mg/kg, day 13
  glucose in urine: -
mice; i.p. 40 mg/kg, day 14
  glucose in urine: -
mice; i.p. 80 mg/kg, day 1
  glucose in urine: -
mice; i.p. 80 mg/kg, day 2
  glucose in urine: -
mice; i.p. 80 mg/kg, day 3
  glucose in urine: -
mice; i.p. 80 mg/kg, day 6
  glucose in urine: -
mice; i.p. 80 mg/kg, day 7
  glucose in urine: -
mice; i.p. 80 mg/kg, day 8
  glucose in urine: -
mice; i.p. 80 mg/kg, day 10
  glucose in urine: -
mice; i.p. 80 mg/kg, day 13
  glucose in urine: -
mice; i.p. 80 mg/kg, day 14
  glucose in urine: -
mice; i.p. 160 mg/kg, day 1
  glucose in urine: -
mice; i.p. 160 mg/kg, day 2
  glucose in urine: -
mice; i.p. 160 mg/kg, day 3
  glucose in urine: -
mice; i.p. 160 mg/kg, day 6
  glucose in urine: -
mice; i.p. 160 mg/kg, day 7
  glucose in urine: -
mice; i.p. 160 mg/kg, day 8
  glucose in urine: -
mice; i.p. 160 mg/kg, day 10
  glucose in urine: -
mice; i.p. 160 mg/kg, day 13
  glucose in urine: -
mice; i.p. 160 mg/kg, day 14
  glucose in urine: -
mice; i.p. 200 mg/kg, day 1
  glucose in urine: -
mice; i.p. 200 mg/kg, day 2
  glucose in urine: -
mice; i.p. 200 mg/kg, day 3
  glucose in urine: -
mice; i.p. 200 mg/kg, day 6
  glucose in urine: -
mice; i.p. 200 mg/kg, day 7
  glucose in urine: -
mice; i.p. 200 mg/kg, day 8
  glucose in urine: -
mice; i.p. 200 mg/kg, day 10
  glucose in urine: -
mice; i.p. 200 mg/kg, day 13
  glucose in urine: -
mice; i.p. 200 mg/kg, day 14
  glucose in urine: -
mice
  glucose in urine (in words): no glucose was detected
[1]; oral 5 mg/kg rat twice
  Total bilirubin in serum: 1.1 mg/dL
  GPT in serum: 619 U/l
  GOT in serum: 1409 U/l
[1]; oral 10 mg/kg rat twice
  Total bilirubin in serum: 0.9 mg/dL
  GPT in serum: 570 U/l
  GOT in serum: 1184 U/l
[1]; oral 15 mg/kg rat twice
  Total bilirubin in serum: 1.0 mg/dL
  GPT in serum: 593 U/l
  GOT in serum: 1742 U/l
[2]
  Membrane permeation constant: 2.42 ± 0.60 10^-7 cm^2 · sec^-1
  membrane permeation constant relative to that of PQQ.2Na: 3-4 times

## COC(=O)c1cc(C(=O)OC)c2c(n1)C(=O)C(=O)c1cc(C(=O)OC)[nH]c1-2 [PQQ trimethyl ester]
Male mice SPF-ICR
  mice died: no mice died
mice; i.p. 20 mg/kg, day 1
  glucose in urine: -
mice; i.p. 20 mg/kg, day 2
  glucose in urine: -
mice; i.p. 20 mg/kg, day 3
  glucose in urine: -
mice; i.p. 20 mg/kg, day 6
  glucose in urine: -
mice; i.p. 20 mg/kg, day 7
  glucose in urine: -
mice; i.p. 20 mg/kg, day 8
  glucose in urine: -
mice; i.p. 20 mg/kg, day 10
  glucose in urine: -
mice; i.p. 20 mg/kg, day 13
  glucose in urine: -
mice; i.p. 20 mg/kg, day 14
  glucose in urine: -
mice; i.p. 40 mg/kg, day 1
  glucose in urine: -
mice; i.p. 40 mg/kg, day 2
  glucose in urine: -
mice; i.p. 40 mg/kg, day 3
  glucose in urine: -
mice; i.p. 40 mg/kg, day 6
  glucose in urine: -
mice; i.p. 40 mg/kg, day 7
  glucose in urine: -
mice; i.p. 40 mg/kg, day 8
  glucose in urine: -
mice; i.p. 40 mg/kg, day 10
  glucose in urine: -
mice; i.p. 40 mg/kg, day 13
  glucose in urine: -
mice; i.p. 40 mg/kg, day 14
  glucose in urine: -
mice; i.p. 80 mg/kg, day 1
  glucose in urine: -
mice; i.p. 80 mg/kg, day 2
  glucose in urine: -
mice; i.p. 80 mg/kg, day 3
  glucose in urine: -
mice; i.p. 80 mg/kg, day 6
  glucose in urine: -
mice; i.p. 80 mg/kg, day 7
  glucose in urine: -
mice; i.p. 80 mg/kg, day 8
  glucose in urine: -
mice; i.p. 80 mg/kg, day 10
  glucose in urine: -
mice; i.p. 80 mg/kg, day 13
  glucose in urine: -
mice; i.p. 80 mg/kg, day 14
  glucose in urine: -
mice; i.p. 160 mg/kg, day 1
  glucose in urine: -
mice; i.p. 160 mg/kg, day 2
  glucose in urine: -
mice; i.p. 160 mg/kg, day 3
  glucose in urine: -
mice; i.p. 160 mg/kg, day 6
  glucose in urine: -
mice; i.p. 160 mg/kg, day 7
  glucose in urine: -
mice; i.p. 160 mg/kg, day 8
  glucose in urine: -
mice; i.p. 160 mg/kg, day 10
  glucose in urine: -
mice; i.p. 160 mg/kg, day 13
  glucose in urine: -
mice; i.p. 160 mg/kg, day 14
  glucose in urine: -
mice; i.p. 200 mg/kg, day 1
  glucose in urine: -
mice; i.p. 200 mg/kg, day 2
  glucose in urine: -
mice; i.p. 200 mg/kg, day 3
  glucose in urine: -
mice; i.p. 200 mg/kg, day 6
  glucose in urine: -
mice; i.p. 200 mg/kg, day 7
  glucose in urine: -
mice; i.p. 200 mg/kg, day 8
  glucose in urine: -
mice; i.p. 200 mg/kg, day 10
  glucose in urine: -
mice; i.p. 200 mg/kg, day 13
  glucose in urine: -
mice; i.p. 200 mg/kg, day 14
  glucose in urine: -
mice
  glucose in urine (in words): no glucose was detected
[1]; oral 5 mg/kg rat twice
  Total bilirubin in serum: 0.8 mg/dL
  GPT in serum: 431 U/l
  GOT in serum: 926 U/l
[1]; oral 10 mg/kg rat twice
  Total bilirubin in serum: 0.7 mg/dL
  GPT in serum: 330 U/l
  GOT in serum: 540 U/l
[1]; oral 15 mg/kg rat twice
  Total bilirubin in serum: 1.0 mg/dL
  GPT in serum: 701 U/l
  GOT in serum: 1260 U/l
[2]
  Membrane permeation constant: 1.41 ± 0.48 10^-7 cm^2 · sec^-1
  membrane permeation constant relative to that of PQQ.2Na: about 2 times
